Several values for one entry are separate records, joined by “and”; a condition that tells them apart may be missing. Identical values can stand only once. Like-named read-outs stand apart in the source and are kept apart here.
Columns and labels:
pBR322 plasmid [1] = settings: previous study; cited from earlier work
[2] = test system: poly(dG-dC)2 (DNA, polymer) GC; assay: ethidium bromide displacement, fluorescence; settings: apparent; room temperature; ethidium bromide displaced; compound 10, 50, 100 µM
poly(dG-dC)2 [3] = assay: Ethidium displacement assay, apparent binding constant, poly(dG-dC)2; settings: apparent association constant, ± 0.2 × 10^5 M^−1
Description: (§1) The fluorescence of DNA solutions (calf thymus DNA, T4 coliphage DNA, poly(dA-dT)2 and poly(dG-dC)2 with the investigated compound (final concentrations 10, 50, 100 μM) was measured by fluorescence spectrophotometer Infinite M200 TECAN at room temperature according to the procedure described above. The determination of DNA-binding constants was described in previous articles. The apparent binding constant was calculated from KEtBr [EtBr] = Kapp [drug], where [drug] = the concentration of the tested compound at 50% reduction of fluorescence and KEtBr and [EtBr] are known. The results are reported as a percentage of fluorescence decreases in Table 1.

poly(dA-dT)2 [4] = assay: Ethidium displacement assay, apparent binding constant, poly(dA-dT)2; settings: apparent association constant, ± 0.2 × 10^5 M^−1
Description: as §1

T4 coliphage DNA [5] = assay: Ethidium displacement assay, apparent binding constant, T4 coliphage DNA; settings: apparent association constant, ± 0.2 × 10^5 M^−1
From the text: The values of binding constants in the range of 0.7–6.4 × 10^5 M^−1 for T4 coliphage DNA for derivatives 1–18 was evidence of their minor-groove selectivity, because the major groove of T4 coliphage DNA is blocked by a-glycosylation of the 5-(hydroxymethyl)cytidine residues. […] All of the compounds bound to AT-rich sequences weaker than netropsin but some of them bound stronger to GC-rich sequences, e.g., compounds 3, 6, and 10.
as §1

calf thymus DNA [6] = assay: Ethidium displacement assay, apparent binding constant, calf thymus DNA; settings: apparent association constant, ± 0.2 × 10^5 M^−1
Description: as §1

recombinant human DHFR = target: T1, recombinant human DHFR (Homo sapiens, UniProt P00374); assay: Dihydrofolate reductase (DHFR) inhibition assay; assay type: biochemical; settings: assay kit
T1 construct: purchased
T1 sequence (P00374 1-187): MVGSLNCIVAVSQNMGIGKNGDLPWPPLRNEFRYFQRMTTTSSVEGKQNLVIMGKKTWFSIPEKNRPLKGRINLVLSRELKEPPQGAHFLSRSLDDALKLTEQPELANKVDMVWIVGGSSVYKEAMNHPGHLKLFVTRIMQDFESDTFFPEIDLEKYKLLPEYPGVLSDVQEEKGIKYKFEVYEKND

pBR322 plasmid [7] = assay: Ethidium bromide assay, DNA-binding effect on plasmid pBR322; settings: % fluorescence relative to controls
From the text: Fluorescence readings are reported as % fluorescence relative to the controls.

[8] = test system: poly(dA-dT)2 (DNA, polymer) AT; assay: ethidium bromide displacement, fluorescence; settings: apparent; room temperature; ethidium bromide displaced; compound 10, 50, 100 µM
calf thymus DNA [9] = test system: calf thymus DNA; set-up: method as in earlier work; settings: reference values; KEtBr known (ref 25, 47); NT ref 48 (table row: ref 45); cited from earlier work
poly(dG-dC)2 [10] = test system: poly(dG-dC)2; set-up: method as in earlier work; settings: reference values; KEtBr known (ref 25, 47); NT ref 48 (table row: ref 45); cited from earlier work
T4 coliphage DNA [11] = test system: T4 coliphage DNA; set-up: method as in earlier work; settings: reference values; KEtBr known (ref 25, 47); NT ref 48 (table row: ref 45); cited from earlier work
poly(dA-dT)2 [12] = test system: poly(dA-dT)2; set-up: method as in earlier work; settings: reference values; KEtBr known (ref 25, 47); NT ref 48 (table row: ref 45); cited from earlier work

Row | Structure (SMILES) | DNA-binding activity expressed as % decrease of fluorescence (pBR322 plasmid [1]) [%] | Kapp [2] | Kapp poly (dG-dC)2 (poly(dG-dC)2 [3]) [M⁻¹] | Kapp Poly (dA-dT)2 (poly(dA-dT)2 [4]) [M⁻¹] | Kapp T4 DNA (T4 coliphage DNA [5]) [M⁻¹] | Kapp Calf Thymus DNA (calf thymus DNA [6]) [M⁻¹] | IC50 (recombinant human DHFR) [µM] | Decrease of Fluorescence (pBR322 plasmid [7]) | Kapp [8] | Kapp Calf Thymus DNA (calf thymus DNA [9]) [M⁻¹] | Kapp poly (dG-dC)2 (poly(dG-dC)2 [10]) [M⁻¹] | Kapp T4 DNA (T4 coliphage DNA [11]) [M⁻¹] | Kapp Poly (dA-dT)2 (poly(dA-dT)2 [12])
1 | COc1cc(CCC(=O)Nc2cnc(N)nc2)cc(OC)c1OC [C] | 69.92 |  |  |  |  |  |  |  |  |  |  |  | 
2 | COc1cc(C(=O)Nc2ccc(N)c(I)c2)cc(OC)c1OC [Compound 1] |  | 3.6 ± 0.2 × 10^5 M^−1 | 360000 | 310000 | 160000 | 300000 | 21.89 ± 0.03 | 74.54% | 3.1 ± 0.2 × 10^5 M^−1 |  |  |  | 
3 | COc1cc(C(=O)Nc2ccc(F)c(N)c2)cc(OC)c1OC [Compound 2] |  | 3.0 ± 0.2 × 10^5 M^−1 | 300000 | 190000 | 260000 | 260000 | 1.11 ± 0.02 | 52.89% | 1.9 ± 0.2 × 10^5 M^−1 |  |  |  | 
4 | COc1cc(C(=O)Nc2cc(N)ccc2F)cc(OC)c1OC [Compound 3] |  | 5.3 ± 0.2 × 10^5 M^−1 | 530000 | 430000 | 410000 | 170000 | 10.13 ± 0.09 | 68.85% | 4.3 ± 0.2 × 10^5 M^−1 |  |  |  | 
5 | COc1cc(C(=O)Nc2ccc(N)c(Cl)c2)cc(OC)c1OC [Compound 4] |  | 1.3 ± 0.2 × 10^5 M^−1 | 130000 | 210000 | 230000 | 230000 | 5.02 ± 0.03 | 87.99% | 2.1 ± 0.2 × 10^5 M^−1 |  |  |  | 
6 | COc1cc(C(=O)Nc2cc(N)ccc2Cl)cc(OC)c1OC [Compound 5] |  | 2.3 ± 0.2 × 10^5 M^−1 | 230000 | 130000 | 100000 | 270000 | 30.02 ± 0.02 | 72.56% | 1.3 ± 0.2 × 10^5 M^−1 |  |  |  | 
7 | COc1cc(C(=O)Nc2ccc(N)nc2)cc(OC)c1OC [Compound 6] |  | 4.8 ± 0.2 × 10^5 M^−1 | 480000 | 250000 | 130000 | 400000 | 0.99 ± 0.01 | 50.44% | 2.5 ± 0.2 × 10^5 M^−1 |  |  |  | 
8 | COc1cc(OC)cc(C(=O)Nc2ccc(N)nc2)c1 [Compound 7] |  | 2.3 ± 0.2 × 10^5 M^−1 | 230000 | 340000 | 210000 | 410000 | 3.02 ± 0.09 | 66.89% | 3.4 ± 0.2 × 10^5 M^−1 |  |  |  | 
9 | COc1ccc(C(=O)Nc2ccc(N)nc2)cc1OC [Compound 8] |  | 3.5 ± 0.2 × 10^5 M^−1 | 350000 | 310000 | 240000 | 250000 | 10.59 ± 0.06 | 56.58% | 3.1 ± 0.2 × 10^5 M^−1 |  |  |  | 
10 | COc1cccc(C(=O)Nc2ccc(N)nc2)c1 [Compound 9] |  | 1.5 ± 0.2 × 10^5 M^−1 | 150000 | 390000 | 120000 | 390000 | 56.05 ± 0.08 | 64.89% | 3.9 ± 0.2 × 10^5 M^−1 |  |  |  | 
11 | COc1cc(OC)cc(C(=O)Nc2cnc(N)nc2)c1 [Compound 10] |  | 4.7 ± 0.2 × 10^5 M^−1 | 470000 | 110000 | 70000 | 260000 | 19.2 ± 0.01 | 70.11% | 1.1 ± 0.2 × 10^5 M^−1 |  |  |  | 
12 | COc1cccc(C(=O)Nc2cnc(N)nc2)c1 [Compound 11] |  | 2.5 ± 0.2 × 10^5 M^−1 | 250000 | 260000 | 310000 | 120000 | 55.32 ± 0.02 | 54.54% | 2.6 ± 0.2 × 10^5 M^−1 |  |  |  | 
13 | COc1cc(/C=C/C(=O)Nc2cnc(N)nc2)cc(OC)c1OC [Compound 12] |  | 2.1 ± 0.2 × 10^5 M^−1 | 210000 | 150000 | 280000 | 210000 | 26.01 ± 0.02 | 60.11% | 1.5 ± 0.2 × 10^5 M^−1 |  |  |  | 
14 | COc1cc(/C=C/C(=O)Nc2ccc(N)cc2)cc(OC)c1OC [Compound 13] |  | 3.4 ± 0.2 × 10^5 M^−1 | 340000 | 400000 | 290000 | 190000 | 0.89 ± 0.07 | 49.9% and 49.89% | 4.0 ± 0.2 × 10^5 M^−1 |  |  |  | 
15 | COc1cc(NC(=O)/C=C/c2cc(OC)c(OC)c(OC)c2)ccc1N [Compound 14] |  | 4.2 ± 0.2 × 10^5 M^−1 | 420000 | 890000 | 290000 | 490000 | 0.97 ± 0.02 | 43.85% | 8.9 ± 0.2 × 10^5 M^−1 |  |  |  | 
16 | COc1cc(/C=C/C(=O)Nc2ccc(N)nc2)cc(OC)c1OC [Compound 15] |  | 2.4 ± 0.2 × 10^5 M^−1 | 240000 | 310000 | 230000 | 190000 | 12.01 ± 0.01 | 68.82% | 3.1 ± 0.2 × 10^5 M^−1 |  |  |  | 
17 | COc1cc(/C=C/C(=O)Nc2ccc(Cl)c(N)c2)cc(OC)c1OC [Compound 16] |  | 3.8 ± 0.2 × 10^5 M^−1 | 380000 | 270000 | 310000 | 130000 | 0.88 ± 0.02 | 57.77% | 2.7 ± 0.2 × 10^5 M^−1 |  |  |  | 
18 | COc1cc(/C=C/C(=O)Nc2ccc(F)c(N)c2)cc(OC)c1OC [Compound 17] |  | 2.5 ± 0.2 × 10^5 M^−1 | 250000 | 50000 | 290000 | 180000 | 1.22 ± 0.05 | 41.68% | 0.5 ± 0.2 × 10^5 M^−1 |  |  |  | 
19 | COc1cc(/C=C/C(=O)Nc2ccc(N)c(I)c2)cc(OC)c1OC [Compound 18] |  | 4.6 ± 0.2 × 10^5 M^−1 | 460000 | 450000 | 640000 | 580000 | 2.09 ± 0.04 | 42.99% | 4.5 ± 0.2 × 10^5 M^−1 |  |  |  | 
20 | CC[n+]1c(-c2ccccc2)c2cc(N)ccc2c2ccc(N)cc21 [EtBr, Ethidium bromide] |  |  |  |  |  |  |  | 100% |  | 1e+07 | 9.9e+06 | 1e+07 | 95^b* × 10^5 M^−1
21 | CN(Cc1cnc2nc(N)nc(N)c2n1)c1ccc(C(=O)N[C@@H](CCC(=O)O)C(=O)O)cc1 [MTX, methotrexate, reference compound] |  |  |  |  |  |  |  | 100% |  |  |  |  | 
22 | COc1cc(Cc2cnc(N)nc2N)cc(OC)c1OC [TMP, 2,4-diamino-5-(3,4,5-trimethoxybenzyl) pyrimidine, reference compound] |  |  |  |  |  |  |  | 100% |  |  |  |  | 
